{
  "source": "patent US6590140B1",
  "about": "“Metal-regulated transporters and uses therefor” (Trustees of Dartmouth College, priority 1996, dated 2003)",
  "key": {"zrt1 mutant (ZHY1) cells": {"test_system": "zrt1 mutant (ZHY1) cells", "type": "cell-based, Saccharomyces cerevisiae", "conditions": "for effect on zrt1 growth in LIM: 500 μM metal added to iron-limiting medium LIM (1 mM EDTA)", "procedure": "Strains used were DY1457 (MATα ade6 can1 his3 leu2 trp1 ura3) and ZHY1 (MaTα ade6 can1 his3 leu2 trp1 ura3 zrt1:: LEU2). Yeast were grown in standard culture media (SD, YPD) (Eide, D., Davis-Kaplan S., Jordan, I., Sipe, D., and Kaplan, J. (199: 2) J. Biol. Chem. 267, 20774-20781) supplemented with necessary auxotrophic requirements and either 2% glucose or 2% galactose. A zinc-limiting medium (LZM) was prepared in the same manner as LIM (Eide and Guarenete (1992) J. Gen. Microbiol. 138:347-354) except that […]. Cell number in liquid cultures was determined by measuring the optical density of cell suspensions at 600 nm (A600) and converting to cell number with a standard curve.\nStrains used were DY1457 (MATα ade6 can1 his3 leu2 trp1 ura3), ZHY1 (AMTα ade6 can1 his3 leu2 trp1 ura3 zrt1::LEU2), ZHY2 (MATα ade6 can1 his3 leu2 trp1 ura3 zrt2::HIS3), and ZHY3 (MATα ade6 can1 his3 leu2 trp1 ura3 zrt1::LEU2 zrt2::HIS3). Yeast were grown in YP or SD media (Sherman et al. (1986) Methods in Yeast Genetics, Cold Spring Harbor Laboratory, Cold Spring Harbor, N.Y.) supplemented with necessary auxotrophic requirements and either 2% glucose or 2% galactose. Zinc-limiting YP and SD agar plates contained either bathophenanthroline disulfonate (BPS, 200 μM) or EDTA (1 mM), respectively. A liquid zinc-limiting medium (low zinc medium, LZM) was prepared in the same manner as low iron medium (LIM) (Eide and Guarente (1992) J. Gen. Microbiol. 138:347-354) except that the […]. LZM is similar in composition to SD medium with two modifications essential to controlling zinc availability. First, 1 mM EDTA is added to provide buffering for the concentration of free metal ions. Second, the medium is pH-buffered at 4.2 with 20 mM citrate to prevent pH changes that could alter the metal binding ability of EDTA. LZM was also prepared without EDTA ([…]) which is less zinc-limiting because the predominant chelator in this medium, citrate, binds zinc with less affinity than does EDTA. The concentrations of free (i.e. unchelated) zinc were calculated using MAXCHELATOR software (Chris Patton, Stanford University). Cell number in liquid cultures was determined by measuring the absorbance of cell suspensions at 600 nm (OD600) and converting to cell number with a standard curve.\nTo examine the function of ZRT1, a disruption mutation, zrt1::LEU2, was constructed by inserting the LEU2 gene into the center of ZRT1 (FIG. 6). This zrt1 disruption allele was then introduced into a haploid yeast strain. […] Because of the high EDTA concentration in LIM (1 mM), this medium is expected to have low available levels of other metals that are bound tightly by this chelator. Supplements of other metals were tested for improved growth of the zrt1 mutant in LIM. […] To study this effect further, a low zinc medium, LZM, was developed in which cell growth could be limited by zinc deficiency and the growth response of the wild type and zrt1 mutant strains to increasing levels of supplemented zinc was examined. Wild type (DY1457, squares) and zrt1 mutant (ZHY1, circles) cells were inoculated into LZM supplemented with the indicated amount of ZnSO4 and grown for 16 hours prior to cell number determination. […] Mutant zrt1 cells attained this same maximum number of cell divisions only with zinc supplements of 750 μM or more, i.e. a 75-fold increase in the zinc requirement of the zrt1 mutant compared to the wild type.\nTo further assess the role of the low affinity system as a source of zinc, growth of wild type and zrt2 cells in a zinc-limiting medium, LZM, supplemented with increasing amounts of zinc was examined. The same strains as in FIG. 15 were grown for six hours in SD glucose medium, harvested, washed in LZM, and reinoculated into either LZM (FIG. 15A) or LZM-EDTA (FIG. 15B) supplemented with the indicated concentrations of ZnCl2 ([Zn]T). […]"}, "zrt1 strain": {"test_system": "zrt1 strain", "assay": "Cell-associated zinc, zrt1 strain", "type": "cell-based, Saccharomyces cerevisiae", "procedure": "Zinc uptake assays were performed as described previously for iron uptake (Eide et al. (1992) J. Biol. Chem. 267:20774-20781) except that ^65ZnCl2 (Amersham) and LZM-EDTA were substituted for ^59FeCI3 and LIM-EDTA, respectively. Cells were incubated for 5 minutes in LZM-EDTA plus the indicated concentration of ^65Zn, collected on glass fiber filters (Schleicher and Schuell), washed with 10 ml ice-cold SSW (1 mM EDTA, 20 mM trisodium citrate, 1 mM KH2PO4, 1 mM CaCl2, 5 mM MgSO4, 1 mM NaCl pH 4.2), and cell-associated radioactivity was measured by liquid scintillation counting. […] Michaelis-Menten kinetic values were determined using […] software (Intellikinetics, Princeton, N.J.). […] The statistical significance of the differences of values relative to controls was determined with one-way analysis of variance (ANOVA) followed by a Dunnett multiple comparison test. β-galactosidase activity was assayed in cells harvested at an OD600 of 0.5-2.0 as described by Guarente (Guarente, L. (1983) Methods Enzymol. 101:181-191) and activity is expressed as the change in absorbance at 420 nm×1000 divided by (min×ml of culture used×OD600 of the culture). Cell-associated zinc was measured in parallel cultures supplemented with tracer amounts of ^65Zn (10 μM) and nonradioactive zinc to the indicated final concentration. […]"}},
  "note": "Values joined by “and” are separate entries in the source; they are usually repeats but may differ in a detail not shown here. Equal entries are not always repeated.",
  "data": [
    {"smiles": "[Cl-].[Cl-].[Co+2]", "note": "[Co]", "values": [
      {"measurement": "effect on zrt1 growth in LIM", "setting": "zrt1 mutant (ZHY1) cells", "value": "no effect"}
    ]},
    {"smiles": "[Cl][Cu][Cl]", "note": "[Cu]", "values": [
      {"measurement": "effect on zrt1 growth in LIM", "setting": "zrt1 mutant (ZHY1) cells", "value": "no effect"}
    ]},
    {"smiles": "[Cl][Mn][Cl]", "note": "[Mn]", "values": [
      {"measurement": "effect on zrt1 growth in LIM", "setting": "zrt1 mutant (ZHY1) cells", "value": "no effect"}
    ]},
    {"smiles": "[Zn+2]", "note": "[zinc]", "values": [
      {"measurement": "effect on zrt1 growth in LIM", "setting": "zrt1 mutant (ZHY1) cells", "value": "greatly enhanced growth"},
      {"measurement": "increase in zinc requirement of zrt1 mutant compared to wild type", "setting": "zrt1 mutant (ZHY1) cells; growth in zinc-limiting medium", "value": "75 fold and 100 fold"},
      {"measurement": "total zinc required for maximum number of cell divisions", "setting": "zrt1 mutant (ZHY1) cells; zrt1, LZM", "value": "approximately 500 μM"},
      {"measurement": "total zinc for maximum number of divisions", "setting": "zrt1 mutant (ZHY1) cells; zrt1, LZM-EDTA (LZM without EDTA), 16 hours", "value": 0.5, "unit": "µM"},
      {"measurement": "calculated free zinc [Zn]F for maximum number of divisions", "setting": "zrt1 mutant (ZHY1) cells; zrt1, LZM-EDTA, 16 hours", "value": "~6", "unit": "nM"},
      {"measurement": "growth rate versus untreated culture", "setting": "zrt1 mutant (ZHY1) cells; zrt1 cells, SD glucose supplemented with 2 mM ZnCl2", "value": "No difference in growth rate"},
      {"measurement": "cell-associated zinc", "setting": "zrt1 strain; 10 μM total zinc", "value": "133±12", "unit": "pmol/10^6 cells"},
      {"measurement": "cell-associated zinc", "setting": "zrt1 strain; 1000 μM total zinc", "value": "168±14", "unit": "pmol/10^6 cells"}
    ]}
  ]
}
